Common to all, as to assay: NCI tumour cell line growth inhibition, 48 h
Test [1] relates to M19-MEL melanoma.
In test [2] the test system is P388 leukemia.
Test [3] relates to P388/ADR leukemia.
For test [4], the system named is SN12K1 renal.
Test [5] deals with LXFL 529 NSCLC.
For test [6], the system named is RXF-631 renal.
Test [7] has as its system DMS 114 small cell lung.

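96-well plates; 48 h exposure; 5 concentrations. Endpoints by linear interpolation between flanking doses. Not reached: highest tested concentration assigned. The concentration for full growth arrest is given as TGI.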

As for `CC1C(=O)C(C)C(c2ccco2)N(N=O)C1c1ccco1` (configuration not stated), the TGI in test [1], in test [2], in test [3] and in test [4] was more than 100 µM in each case.

Take `C[n+]1c2ccccc2c(CNC(CS)C(=O)O)c2ccccc21` (configuration not stated): the TGI in test [5] was more than 100 µM; in test [1] it was 90.6 µM; in test [6], 70.4 µM.

With `Cc1c2cc[n+](C)cc2c(C)c2c1oc1ccccc12`, the figures for the TGI in test [7], in test [5] and in test [1] were 7.86 µM, 15.8 µM and 8.99 µM, respectively.

With `O=C(NC(Cc1ccc(I)cc1)C(=O)O)c1ccc(Cl)cc1` (configuration not stated), the TGI in test [1], in test [2], in test [3] and in test [4] was more than 100 µM in each case.

Consider `CS(=O)(=O)OCCN(CCOS(C)(=O)=O)c1ccc(/C=N/Nc2ncnc3nc[nH]c23)cc1`, for which the TGI in test [7] turned out to be 26.2 µM; in test [1], 51 µM.

With `N=C(N)SCc1cccc([N+](=O)[O-])c1`, the TGI in test [7] was 90.7 µM; in test [1], more than 100 µM; in test [2] it was 33.6 µM; in test [3], 41.2 µM; in test [4], 98.6 µM.

As to `CNC(C)Cc1ccccc1OC` (configuration not stated), the TGI in test [7], in test [5] and in test [6] was more than 100 µM each time.

As for `O=C1OC2(OC2c2ccc(Cl)cc2)c2ccccc21` (configuration not stated), the TGI in test [7] was more than 100 µM; in test [5], 78.2 µM; in test [1], more than 100 µM.

These data come from PubChem BioAssay (NCI).
